Among the test systems are SK-MEL-2 melanoma; NCI-H23 lung; IGROV1 ovarian; A549 NSCLC; SR leukemia; SF-295 CNS; MDA-N; T-47D breast; KM12 colon; HCT-116 colon; NCI-H522 lung; SK-MEL-28 melanoma; EKVX NSCLC; PC-3 prostate; LOX IMVI melanoma; SF-539 CNS; UO-31 renal; M14 melanoma.
Holding throughout (assay): NCI-60 cell line screen, 48 h

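Method: 48-hour compound exposure of cells in 96-well plates, five concentrations, linear interpolation of endpoints. The concentration for full growth arrest is given as TGI.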

Turning to `c1ccc(N=c2sc3ccccc3sc2=Nc2ccccc2)cc1`, the TGI was 3.45 µM in the assay with SK-MEL-2 melanoma; 3.82 µM with NCI-H23 lung; 3.08 µM in the assay with IGROV1 ovarian; 9.1 µM with A549 NSCLC; above 100 µM in the assay with SR leukemia; 12.5 µM in the assay with SF-295 CNS. The TGI in the assay with MDA-N came to 3.05 µM; in the assay on T-47D breast it was 3.56 µM; in the assay with KM12 colon, 4.25 µM; in the assay with HCT-116 colon it was 3.18 µM; in the assay on NCI-H522 lung it was 2.95 µM; in the assay with SK-MEL-28 melanoma, 3.4 µM. In addition, the TGI in the assay on EKVX NSCLC amounted to 7.26 µM; in the assay with PC-3 prostate, 25.5 µM; with LOX IMVI melanoma, 3.43 µM; in the assay with SF-539 CNS it was 3.42 µM; with UO-31 renal it was 2.93 µM.
Take `Cc1cc(S(=O)(=O)n2ccnc2Oc2ccccc2)c(SSc2cc(Cl)c(C)cc2S(=O)(=O)n2ccnc2Oc2ccccc2)cc1Cl`: the TGI in the assay on SK-MEL-2 melanoma, with IGROV1 ovarian, with A549 NSCLC, with SR leukemia, with MDA-N and in the assay with T-47D breast was above 100 µM each time. In addition, the TGI in the assay with KM12 colon, in the assay on HCT-116 colon, in the assay with M14 melanoma, in the assay with NCI-H522 lung, in the assay with SK-MEL-28 melanoma and in the assay on EKVX NSCLC was above 100 µM throughout. Further, the TGI with PC-3 prostate, in the assay with LOX IMVI melanoma, in the assay with SF-539 CNS and in the assay on UO-31 renal was above 100 µM each time.
As to `Nc1ccc(Nc2c3ccccc3nc3ccccc23)cc1`, the TGI with SK-MEL-2 melanoma, in the assay on NCI-H23 lung, in the assay on IGROV1 ovarian, in the assay with A549 NSCLC, in the assay on SR leukemia and in the assay with SF-295 CNS was above 10 µM throughout. The TGI in the assay with MDA-N is above 10 µM; in the assay with T-47D breast it was above 10 µM; in the assay on KM12 colon, above 10 µM; in the assay with HCT-116 colon it was 9.52 µM; in the assay on M14 melanoma it was above 10 µM; in the assay on NCI-H522 lung, above 10 µM. The TGI in the assay on SK-MEL-28 melanoma was above 10 µM; in the assay on EKVX NSCLC, above 10 µM; in the assay with PC-3 prostate it was above 10 µM; with LOX IMVI melanoma it was 2.35 µM; in the assay on SF-539 CNS it was above 10 µM.
With `Cc1cc2c(cc1C)C(=O)C1(C2)Cc2c(ccc(C)c2C)C1=O` (stereo unspecified), the TGI in the assay with SK-MEL-2 melanoma, in the assay with IGROV1 ovarian, with A549 NSCLC, in the assay on SR leukemia, in the assay on SF-295 CNS and with MDA-N was above 100 µM in each case. Also, the TGI with T-47D breast, in the assay on KM12 colon, in the assay with HCT-116 colon, with M14 melanoma, with NCI-H522 lung and in the assay on SK-MEL-28 melanoma was above 100 µM each time. Moreover, the TGI in the assay on EKVX NSCLC, in the assay on PC-3 prostate, with LOX IMVI melanoma, in the assay on SF-539 CNS and with UO-31 renal was above 100 µM throughout.
Regarding `O=C(Nc1nnc(-c2c(Cl)c(Cl)c(Cl)c(Cl)c2-c2nc3cc(C(=O)c4ccccc4)ccc3[nH]2)o1)c1ccccc1`, the TGI was 51.4 µM in the assay with SK-MEL-2 melanoma; 54.2 µM in the assay with NCI-H23 lung; 42 µM in the assay with IGROV1 ovarian; 31.9 µM in the assay on A549 NSCLC; 20.9 µM in the assay on SR leukemia; 24.3 µM in the assay with SF-295 CNS. In addition, the TGI with MDA-N was 12.6 µM; in the assay on T-47D breast, 54.7 µM; with KM12 colon it was above 100 µM; in the assay on HCT-116 colon, 87.3 µM; in the assay with M14 melanoma, 34.4 µM; with SK-MEL-28 melanoma, 45.4 µM. The TGI with EKVX NSCLC was 38.7 µM; in the assay on PC-3 prostate, 28.3 µM; in the assay on LOX IMVI melanoma it was 32 µM; with SF-539 CNS it was 23.7 µM; with UO-31 renal it was above 100 µM.
Turning to `CCN1C(=O)c2ccccc2C1(O)c1ccc(Cl)cc1` (stereo unspecified), the TGI is 83.6 µM in the assay with SK-MEL-2 melanoma; above 100 µM in the assay with NCI-H23 lung; above 100 µM with IGROV1 ovarian; above 100 µM in the assay on A549 NSCLC; above 100 µM in the assay with SR leukemia; 63.2 µM in the assay on SF-295 CNS. Also, the TGI in the assay with MDA-N, in the assay on T-47D breast, in the assay with KM12 colon, in the assay with HCT-116 colon, in the assay with M14 melanoma and with SK-MEL-28 melanoma was above 100 µM each time. Further, the TGI with EKVX NSCLC was above 100 µM; in the assay with PC-3 prostate it was 80.6 µM; in the assay on LOX IMVI melanoma it was above 100 µM; with SF-539 CNS, above 100 µM; in the assay on UO-31 renal it was above 100 µM.
`COC(=O)[C@]12CCC(C)(C)C[C@H]1C1=CC[C@@H]3[C@@]4(C)CC[C@H](OC5OC(CO)C(O)C(O)C5OC5OC(CO)C(O)C(O)C5O)C(C)(C)[C@@H]4CC[C@@]3(C)[C@]1(C)CC2` (stereo partly specified): the TGI in the assay on SK-MEL-2 melanoma was determined as 23.9 µM; in the assay on NCI-H23 lung, 19.6 µM; with IGROV1 ovarian it was 28.7 µM; in the assay on A549 NSCLC, 22.2 µM; with SR leukemia it was 26.8 µM; in the assay with SF-295 CNS, 27.2 µM. In addition, the TGI in the assay on MDA-N worked out at 18.4 µM; in the assay on T-47D breast, 36.3 µM; with KM12 colon it was 26.9 µM; in the assay with HCT-116 colon, 18.7 µM; in the assay on M14 melanoma it was 13.9 µM; in the assay with NCI-H522 lung, 8.71 µM. The TGI came to 12.3 µM in the assay with SK-MEL-28 melanoma; 26 µM in the assay with EKVX NSCLC; 15.3 µM in the assay on PC-3 prostate; 20.2 µM in the assay on LOX IMVI melanoma; 10.9 µM in the assay on UO-31 renal.
Consider `N#Cc1c(C#N)c(-c2ccco2)n(-c2ccccc2)c1N`, for which the TGI in the assay on SK-MEL-2 melanoma, with NCI-H23 lung, in the assay with IGROV1 ovarian, in the assay on A549 NSCLC, with SR leukemia and in the assay on SF-295 CNS was above 100 µM throughout. Moreover, the TGI with MDA-N, in the assay with T-47D breast, in the assay on KM12 colon, in the assay with HCT-116 colon, with M14 melanoma and in the assay with NCI-H522 lung was above 100 µM each time. Also, the TGI with EKVX NSCLC, in the assay with PC-3 prostate, in the assay on LOX IMVI melanoma, in the assay with SF-539 CNS and in the assay with UO-31 renal was above 100 µM each time.
For `N#Cc1c(N)c2c(c(-c3ccccc3)c1-c1ccccc1)C(=O)N(NC(=O)c1ccccc1)C2=O`, the TGI in the assay with SK-MEL-2 melanoma, in the assay on IGROV1 ovarian, with A549 NSCLC, in the assay on SR leukemia, in the assay on SF-295 CNS and in the assay with MDA-N was above 100 µM throughout. In addition, the TGI in the assay on T-47D breast, in the assay on KM12 colon, in the assay with HCT-116 colon, in the assay with M14 melanoma, in the assay with NCI-H522 lung and in the assay with SK-MEL-28 melanoma was above 100 µM throughout. Moreover, the TGI in the assay with EKVX NSCLC, in the assay on PC-3 prostate, with LOX IMVI melanoma, with SF-539 CNS and in the assay with UO-31 renal was above 100 µM in each case.
For `CC(C)(C)OC(=O)NC(Cc1ccc(OCc2ccccc2)cn1)C(=O)NCc1ccccc1` (stereo unspecified), the TGI in the assay with SK-MEL-2 melanoma was 35.7 µM; with NCI-H23 lung it was 47.3 µM; in the assay with IGROV1 ovarian, above 100 µM; in the assay on A549 NSCLC it was above 100 µM; in the assay on SR leukemia, 30.5 µM; in the assay with SF-295 CNS, 51.6 µM. In addition, the TGI with MDA-N was determined as 43.8 µM; in the assay with T-47D breast, 56.5 µM; with KM12 colon it was 97.8 µM; in the assay on HCT-116 colon, 83.6 µM; in the assay with M14 melanoma, 47.8 µM; in the assay with NCI-H522 lung it was 47.1 µM. Besides, the TGI was above 100 µM with SK-MEL-28 melanoma; 99.3 µM with EKVX NSCLC; 53 µM with PC-3 prostate; 39.4 µM with LOX IMVI melanoma; 82.9 µM in the assay on UO-31 renal.
On to `CC1=C(C#N)C2C(=C(N)Oc3ccccc32)C(N)=N1` (stereo unspecified), for which the TGI was above 100 µM in the assay on SK-MEL-2 melanoma; 76.7 µM in the assay with IGROV1 ovarian; above 100 µM in the assay on A549 NSCLC; above 100 µM in the assay with SR leukemia; above 100 µM in the assay with SF-295 CNS; above 100 µM in the assay on MDA-N. For the same compound, the TGI in the assay on T-47D breast is 78.2 µM; in the assay on KM12 colon, 71.2 µM; with HCT-116 colon, above 100 µM; with M14 melanoma it was 64.6 µM; with NCI-H522 lung, 36.2 µM; with EKVX NSCLC, 73.8 µM. The TGI is above 100 µM with PC-3 prostate, 81.7 µM in the assay with LOX IMVI melanoma, 61.3 µM in the assay with SF-539 CNS and 41.2 µM in the assay on UO-31 renal.
`COc1cc2nc(-c3ccccc3F)[nH]c(=O)c2cc1OC`: the TGI in the assay on SK-MEL-2 melanoma, in the assay on NCI-H23 lung, in the assay on IGROV1 ovarian, with A549 NSCLC, with SR leukemia and in the assay on SF-295 CNS was above 100 µM throughout. Besides, the TGI with MDA-N, with T-47D breast, with KM12 colon, in the assay with HCT-116 colon, in the assay with M14 melanoma and in the assay on NCI-H522 lung was above 100 µM each time. In addition, the TGI in the assay with EKVX NSCLC, with PC-3 prostate, in the assay with LOX IMVI melanoma and in the assay on UO-31 renal was above 100 µM each time.
